Assay results from US12251410B2, “Anticancer trail-targeted plant virus particles” (CASE WESTERN RESERVE UNIVERSITY, priority 2017, dated 2025).
Entries after “also recorded” stand apart in the source; their conditions may differ.

Key:
[1] = test system: MDA-MB-231 triple negative breast cancer cell line; test: MTT cytotoxicity assay, MDA-MB-231; assay type: cell-based; settings: 12 h incubation, normalized to TRAIL, GraphPad Prism
Procedure: (§1) Herein, a panel of triple negative breast cancer (TNBC) cell lines, MDA-MB-231, HCC-38, and BT-549, were used.
(§2) Triple negative breast cancer cell lines MDA-MB-231, HCC-38, and BT-549 cell lines (provided by Prof. Ruth Keri, Case Western Reserve University) and HER-2 amplified breast cancer cell line SK-BR-3 (ATCC). MDA-MB-231, HCC-38, BT-549, and SK-BR-3 were cultured in Dulbecco's modified Eagle's medium (DMEM) and Roswell Park Memorial Institute (RPMI) 1640 medium without or with insulin (0.023 IU/mL final concentration), and McCoy's 5A medium, respectively. All media were supplemented with 10% (v/v) fetal bovine serum (FBS) and 1% (v/v) penicillin/streptomycin. All cells were maintained at 37° C. and 5% CO2.
(§3) Cells (MDA-MB-231, HCC-38, BT-549, and SK-BR-3) were seeded at 5,000 cells per well in culture medium in 96-well plates 1 day prior to treatment. […] Samples were prepared in triplicate and each assay was performed at least twice. […] Following incubation, cells were washed with PBS, pH 7.4 and fresh medium was replenished; then 10 μL MTT reagent was added as per manufacturer's instructions. Absorbance was determined using the Tecan infinite-M200 plate reader.

HCC-38 cell line (TNBC) = test: MTT cytotoxicity assay, HCC-38; assay type: cell-based; settings: 12 h incubation, normalized to TRAIL, GraphPad Prism
Procedure: as §1, §2, §3

BT-549 cell line (TNBC) = test: MTT cytotoxicity assay, BT-549; assay type: cell-based; settings: 12 h incubation, normalized to TRAIL, GraphPad Prism
Procedure: as §1, §2, §3

[2] = test system: SK-BR-3, HER2-amplified breast cancer cell line; test: MTT cytotoxicity assay, SK-BR-3; assay type: cell-based; settings: HER-2 amplified breast cancer cell line
Procedure: Data are expressed as means±SD.
as §1, §2, §3

caspase-8 = test: Caspase-Glo 8 assay in MDA-MB-231 cells; assay type: cell-based; settings: 20 ng/mL HisTRAIL, 3 h
From the text: (§4) TRAIL-DR4/5 receptor binding activates caspase-dependent apoptosis. Specifically, TRAIL-DR4/5 receptor binding induces receptor oligomerization, followed by the recruitment of FAS-associated protein with death domain (FADD) and pro-caspase-8 to form a functional death-inducing signaling complex (DISC) at the plasma membrane. Subsequently, caspase-8 is activated and released into the cytosol, where it cleaves and activates caspase-3 or -7 to execute the apoptosis in cancer cells (FIG. 4). […] The drugs were incubated with MDA-MB-231 cells for 3 h before adding reagents from Caspase-Glo 8 and Caspase-Glo 3/7 Assay Kit. The assay was performed as per manufacturer's instructions.
(§5) Determination of levels of activated caspase-8 and caspase-3/7 MDA-MB-231 cells were seeded at 5,000 cells per well in a white-walled 96-well luminometer microplate one day prior to treatment. […] Non-treated cells were used as control. Samples were prepared in triplicate. Caspase-Glo 8 assay kit and Caspase-Glo 3/7 assay kit (Promega) were used to determine the level of activated caspases. Briefly, the reagent causes cell lysis, followed by caspase cleavage of the substrate and aminoluciferin which produces a luminescent signal in the presence of luciferase and ATP from the kit. Luminescence was read by the Tecan infinite-M200 plate reader to determine the proportional activated level of caspase 8- and 3/7.

caspase-3/7 = test: Caspase-Glo 3/7 assay in MDA-MB-231 cells; assay type: cell-based; settings: 20 ng/mL HisTRAIL, 3 h
From the text: as §4, §5

[3] = test system: subcutaneous MDA-MB-231 tumors; test: Treatment of MDA-MB-231 xenografts in athymic nude mice; assay type: in vivo, mouse
Procedure: FIGS. 3(A-C) are graphs and images illustrating treatment of MDA-MB-231 xenografts in an athymic nude mouse model. 6-week-old female NCR nu/nu mice were injected subcutaneously into the right flank with 2×10^6 cells; treatment began when tumor volume reached 100-150 mm^3, approximately 2 weeks after tumor cell inoculation. […] 20 μL PBS or corresponding particle amount of PVXNi were injected as controls. Tumor volume was normalized at the initial day. Data were expressed as expressed as means+SD. (A) Tumor growth curve during treatment. (B) Tumor volume distribution in each group during treatment. (C) Representative of isolated tumor tissues after treatment.
Treatment started when the tumor volume reached 100-150 mm^3. […] While we envision systemic administration for clinical applications, we started here by evaluating intratumoral treatments to focus on the question as to whether PVX-delivered HisTRAIL would outperform free HisTRAIL; the intratumoral treatment allows one to precisely control and match the dosing, and, thus, eliminates confounding factors from varying biodistribution. […]
The animal study was carried using an IACUC-approved protocol. […] Tumors were measured daily and the volume was calculated using the formula v=(l×w^2)/2, where l is the length and w is the width of tumor. […] All results are expressed as means±SD, calculated by GraphPad Prism. […]

[4] = background statement; cited from earlier work

HisTRAIL: Recombinant human TRAIL (aa 114-281) with N-terminal His-tag and thrombin cleavage sequence, expressed in ClearColi BL21(DE)3
IC50 values, MDA-MB-231 [1]: 0.0866 µg/mL
IC50 values, MDA-MB-231 ([1]; listed as HiTRAIL): 0.0868 µg/mL
IC50 values, HCC-38 (HCC-38 cell line (TNBC)): 0.3672 µg/mL
IC50 values, BT-549 (BT-549 cell line (TNBC)): 0.543 µg/mL
cell killing / apoptosis induction in SK-BR-3 [2]: Neither PVX-HisTRAIL nor HisTRAIL did induce apoptosis; also recorded: did not show cell killing efficacy
level of caspase 8, increase compared to PBS control (caspase-8): 1.38 fold
caspase 3/7 increase vs. PBS controls (caspase-3/7): 1.5 fold
average relative tumor volume increase vs. starting volume ([3]; day 30 post first treatment, intratumoral every 2 days, 5 μg His-TRAIL/injection (PVX-Ni at corresponding particle amount)): 2.53 fold
tumor growth inhibition (in words) ([3]; intratumoral, athymic nude mice with MDA-MB-231 tumors, vs PBS control): effective inhibition

phenanthriplatin
potency compared to cisplatin, carboplatin and oxalatoplatin [4]: 40 ×
